Bounds are passed on as bounds.

These results are taken from US4130433A, “Industrial biocides” (Abbott Laboratories, priority 1977, dated 1978).

The experiment has as its system A.niger and P.funiculosum. The experiment is described as follows: minimum inhibitory concentration (MIC) test, agar plates, fungal growth. The format is cell-based. Conditions: agar inoculated with 10,000 units each of A.niger and P.funiculosum; 30° C., 2 weeks; in µg/mL (unit assumed). On the procedure: In a minimum inhibitory concentration (MIC) test, the amount of the test compound needed to prevent fungal growth is established. In this test, agar containing the test compound at a specified concentration is inoculated with 1 ml of a broth containing 10,000 units each of A.niger and P.funiculosum. The agar plates inoculated in this fashion are incubated at 30° C. for 2 weeks and growth of the micro-organisms is determined by visual inspection to establish presence or absence of fungal growth. The compounds made according to Example 1 and their MIC data are shown in the following table, wherein X, Y, Y' and Z are as indicated in Structure I.
As to `COC(=O)c1cc(Oc2ccc(Cl)cc2Cl)ccc1N1C(=O)C(Cl)=C(Cl)C1=O` [X=Cl, Y=2-CO2 Me, Y'=2,4-Cl2, Z=O], the MIC is 1000-1500.

`O=C1C(Cl)=C(Cl)C(=O)N1c1ccc(Oc2ccc(Cl)c(Cl)c2)c(Cl)c1` [X=Cl, Y=3-Cl, Y'=3,4-Cl2, Z=O] returned an MIC greater than 2000. In the case of `O=C1C(Cl)=C(Cl)C(=O)N1c1ccc(Oc2ccc(Cl)cc2Cl)cc1` [X=Cl, Y=H, Y'=2,4-Cl2, Z=O], the MIC is given as 1000-1500. For `O=C1C(Cl)=C(Cl)C(=O)N1c1ccc(Sc2ccc([N+](=O)[O-])cc2)cc1` [X=Cl, Y=H, Y'=4-NO2, Z=S] the value was 50-100; for `O=C1C(Cl)=C(Cl)C(=O)N1c1ccc(Sc2ccccc2)cc1` [X=Cl, Y=H, Y'=H, Z=S, N-(p-phenylthiophenyl)-2,3-dichloromaleimide], 500-1000. Next, `COC(=O)c1cc(Oc2ccc(Cl)cc2Cl)ccc1N1C(=O)C=CC1=O` [X=H, Y=2-CO2 Me, Y'=2,4-Cl2, Z=O]: 10- 50. Next, `O=C1C=CC(=O)N1c1ccc(Oc2ccc(Cl)cc2Cl)cc1` [X=H, Y=H, Y'=2,4-Cl2, Z=O]: 50-100. For the molecule `O=C1C=CC(=O)N1c1ccc(Sc2ccc([N+](=O)[O-])cc2)cc1` [X=H, Y=H, Y'=4-NO2, Z=S], the MIC is recorded as 50-100. Regarding `O=C1C=CC(=O)N1c1ccc(Sc2ccccc2)cc1` [X=H, Y=H, Y'=H, Z=S], the MIC is reported as 100-200.
